Experimental data: patent publication US20120129870A1, “PIPERAZINYL DERIVATIVES USEFUL AS MODULATORS OF THE NEUROPEPTIDE Y2 RECEPTOR” (priority 2007, published 2012)

Assays:
NPY Y2 receptor [1] = target: T1, NPY Y2 receptor (Homo sapiens, UniProt P49146); assay: Neuropeptide Y2 pKB assay (FLIPR, KAN-Ts cells stably expressing chimeric G proteins); assay type: cell-based; conditions: apparent pKB, modified Cheng-Prusoff correction
T1 sequence (P49146 1-381): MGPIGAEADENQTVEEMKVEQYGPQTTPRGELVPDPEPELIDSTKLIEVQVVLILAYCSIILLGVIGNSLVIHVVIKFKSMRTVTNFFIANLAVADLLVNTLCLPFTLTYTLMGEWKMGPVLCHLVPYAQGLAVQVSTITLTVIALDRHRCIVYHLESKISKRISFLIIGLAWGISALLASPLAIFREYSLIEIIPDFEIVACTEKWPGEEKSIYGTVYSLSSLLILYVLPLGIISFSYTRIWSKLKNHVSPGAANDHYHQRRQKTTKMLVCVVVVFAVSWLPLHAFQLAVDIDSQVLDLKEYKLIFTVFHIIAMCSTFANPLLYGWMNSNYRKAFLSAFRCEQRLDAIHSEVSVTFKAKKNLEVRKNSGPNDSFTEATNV
Description: The assay was performed using the fluorimetric imaging plate reader (FLIPR) format as described in Dautzenberg, F. M., Biochemical Pharmacology 2005, 69, 1493.
KAN-Ts cells stably expressing chimeric G proteins were seeded at a density of 100,000 cells into poly-d-lysine coated 384-well blackwall, clear-bottom microtiter plates (Corning, N.Y.). One day later, the medium was removed and 50 μl loading medium DMEM high glucose, without serum, supplemented with 10 mM HEPES-acid, 0.1% BSA, 5 mM probenecid and 2 μM Fluo-3AM was added. Cells were loaded for 1 h at 37° C., washed twice with 50 μl assay buffer (5 mM HEPES-acid, 140 mM NaCl, 1 mM MgCl2, 5 mM KCl, 10 mM glucose) and then 30 μl assay buffer was added. Cells were further pre-incubated at room temperature before adding agonists or agonists plus antagonists in 20 μl assay buffer and then measured on a T-channel fluorometric imaging plate reader (FLIPR, Molecular Devices, Sunnyvale, Calif.). Antagonistic potency values were converted to apparent pKB values using a modified Cheng-Prusoff correction. Apparent pKB was calculated as pKB=−log IC50/1+[conc agonist/EC50].

NPY Y2 receptor [2] = target: T1, NPY Y2 receptor; assay: Neuropeptide Y2 radioligand binding assay ([125I]PYY, KAN-Ts membranes); parameters: endogenous in cells; host or cells: KAN-Ts cells (membrane preparation); conditions: for IC50: KAN-Ts membranes endogenously expressing Y2, [125I]PYY (80 pM), 1 h at rt; for Ki: apparent Ki=IC50/(1+C/KD)
Description: KAN-Ts endogenously expressing Y2 receptors were used for the radioligand binding assay. Cells were grown to confluence on 150 cm^2 tissue culture plates, washed with phosphate-buffered saline (PBS), and scraped into 50 mL tubes. After centrifugation, the supernatant was aspirated, and the pellets frozen and stored at −80° C. Thawed pellets were homogenized with a polytron tissue grinder for 15 sec in 20 mM Tris-HCl, 5 mM EDTA. The homogenate was centrifuged at 800×g for 5 min and the collected supernatant was recentrifuged at 25000×g for 25 min. The resulting pellet was resuspended in binding buffer (20 mM HEPES, 120 mM NaCl, 0.22 mM KH2PO4, 1.3 mM CaCl2, 0.8 mM MgSO4). Membranes were incubated with [^125I]PYY (80 pM) in the presence or absence of test compound for 1 h at rt. The reaction was stopped by filtration through GF/C filter plates pre-soaked in 0.3% polyethylenimine and subsequently washed with Tris 50 mM, 5 mM EDTA buffer. Plates were dried for 1 h in a 55° C. oven, scintillation fluid was added and the radioactivity was counted in a Packard TopCount. Specific binding to the NPY receptor subtypes was determined by radioactivity that was bound in the presence of […]. Each binding experiment was repeated three to eight times, each in duplicate. IC50 values (i.e. concentration of unlabelled peptide or antagonist required to compete for 50% of specific binding to the radioligand) were calculated using the GraphPad Prism software (GraphPad Software Inc., San Diego Calif.) with a fit to a sigmoidal dose response curve. Apparent K, values were calculated as Ki=IC50/(1+C/KD), where C is concentration of the radioligand.

| Kb (NPY Y2 receptor [1]) [nM] | IC50 (NPY Y2 receptor [2]) [nM] | Ki (NPY Y2 receptor [2]) [nM] | SMILES |
| --- | --- | --- | --- |
| 63.1 | 30 |  | CCC(CC)C(=O)Nc1ccc(N2CCN(C(c3ccccc3)c3noc(CF)n3)CC2)c(F)c1 (stereo not shown) [Compound 235, 2-Ethyl-N-(3-fluoro-4-{4-[(5-fluoromethyl-[1,2,4]-oxadiazol-3-yl)-phenyl-methyl]-piperazin-1-yl}-phenyl)-butyramide] |
| 501 |  | 14 | Cc1noc(C)c1C(=O)Nc1ccc(N2CCN(C(c3ccccc3)c3ccccc3)CC2)c(C#N)c1 [Compound 302, N-{3-Cyano-4-[4-(diphenylmethyl)piperazin-1-yl]phenyl}-3,5-dimethylisoxazole-4-carboxamide] |
| 50.1 | 29 |  | CCC(CC)C(=O)Nc1ccc(N2CCN(C(c3ccc(OC)cc3)c3ncco3)CC2)c(C#N)c1 (stereo not shown) [Compound 141, N-(3-Cyano-4-{4-[(4-methoxy-phenyl)-oxazol-2-yl-methyl]-piperazin-1-yl}-phenyl)-2-ethyl-butyramide] |
| 50.1 | 39 |  | CCC(CC)C(=O)Nc1ccc(N2CCN(C(c3ccccc3)c3nc4ccccc4s3)CC2)c(C#N)c1 (stereo not shown) [Compound 169, N-{4-[4-(Benzothiazol-2-yl-phenyl-methyl)-piperazin-1-yl]-3-cyano-phenyl}-2-ethyl-butyramide] |
| 50.1 | 40 |  | CCC(CC)C(=O)Nc1ccc(N2CCN(C(c3ccccc3)c3ncco3)CC2)c(F)c1 (stereo not shown) [Compound 20, 2-Ethyl-N-{3-fluoro-4-[4-(oxazol-2-yl-phenyl-methyl)-piperazin-1-yl]-phenyl}-butyramide] |
|  | 200 |  | CCC(CC)C(=O)Nc1ccc(N2CCN(C(c3ccccc3)C3CCCC3)CC2)c(F)c1 (stereo not shown) [Compound 83, N-{4-[4-(Cyclopentyl-phenyl-methyl)-piperazin-1-yl]-3-fluoro-phenyl}-2-ethyl-butyramide] |
|  | 460 |  | CCC(CC)C(=O)Nc1ccc(N2CCN(C(c3ccccc3)C3CCOC3)CC2)c(F)c1 (stereo not shown) [Compound 114, 2-Ethyl-N-(3-fluoro-4-{4-[phenyl-(tetrahydro-furan-3-yl)-methyl]-piperazin-1-yl}-phenyl)-butyramide] |
|  | 1200 |  | CCC(CC)C(=O)Nc1ccc(N2CCN(C(C#N)c3ccccc3OC)CC2)c(F)c1 (stereo not shown) [Compound 137, N-(4-{4-[Cyano-(2-methoxy-phenyl)-methyl]-piperazin-1-yl}-3-fluoro-phenyl)-2-ethyl-butyramide] |
|  | 35 |  | CCC(CC)C(=O)Nc1ccc(N2CCN(C(c3ccccc3)c3nc(C(C)C)no3)CC2)c(F)c1 (stereo not shown) [Compound 241] |

The next lines start with the molecule.

| SMILES | Kb (NPY Y2 receptor [1]) [nM] | IC50 (NPY Y2 receptor [2]) [nM] | Ki (NPY Y2 receptor [2]) [nM] |
| --- | --- | --- | --- |
| N#Cc1cc(NC(=O)[C@@H]2CCOC2)ccc1N1CCN(C(c2ccccc2)c2ncco2)CC1 (stereo partly shown) [Compound 90, Tetrahydro-furan-3-carboxylic acid {3-cyano-4-[4-(oxazol-2-yl-phenyl-methyl)-piperazin-1-yl]-phenyl}-amide] | 31.6 | 38 |  |
| O=C(Nc1ccc(N2CCN(C(c3ccccc3)c3ncco3)CC2)c(F)c1)C1CCCC1 (stereo not shown) [Compound 54, Cyclopentanecarboxylic acid {3-fluoro-4-[4-(oxazol-2-yl-phenyl-methyl)-piperazin-1-yl]-phenyl}amide] | 10000 | 95 |  |
| CCC(CC)C(=O)Nc1ccc(N2CCN(C(c3ccccc3)c3ncco3)CC2)c(Br)c1 (stereo not shown) [Compound 237, N-{3-Bromo-4-[4-(oxazol-2-yl-phenyl-methyl)-piperazin-1-yl]-phenyl}-2-ethyl-butyramide] | 63.1 | 16 |  |
| CCC(CC)C(=O)Nc1ccc(N2CCN(C(c3ccccc3)c3ncco3)CC2)c(F)c1 (single isomer, unassigned) [Compound 60, 2-Ethyl-N-{3-fluoro-4-[4-(oxazol-2-yl-phenyl-methyl)-piperazin-1-yl]-phenyl}-butyramide] | 63.1 | 34 |  |
| CC(CC(F)(F)F)C(=O)Nc1ccc(N2CCN(C(c3ccccc3)c3ncco3)CC2)c(C#N)c1 (stereo not shown) [Compound 110, N-{3-Cyano-4-[4-(oxazol-2-yl-phenyl-methyl)-piperazin-1-yl]-phenyl}-4,4,4-trifluoro-2-methyl-butyramide] | 100 | 29 |  |
| CCC(CC)C(=O)Nc1ccc(N2CCN(C(c3ccccc3)c3cccnc3)CC2)c(C#N)c1 (stereo not shown) [Compound 317, N-{3-Cyano-4-[4-(phenyl-pyridin-3-yl-methyl)-piperazin-1-yl]-phenyl}-2-ethyl-butyramide] | 31.6 |  | 4.3 |
| CCC(CC)C(=O)Nc1ccc(N2CCN(C(c3cccc(F)c3)c3ncco3)CC2)c(C#N)c1 (stereo not shown) [Compound 131, N-(3-Cyano-4-{4-[(3-fluoro-phenyl)-oxazol-2-yl-methyl]-piperazin-1-yl}-phenyl)-2-ethyl-butyramide] | 12.6 | 7 |  |
| CCC(CC)C(=O)Nc1ccc(N2CCN(C(c3ccccc3)c3ccccn3)CC2)c(F)c1 (stereo not shown) [Compound 33, 2-Ethyl-N-{3-fluoro-4-[4-(phenyl-pyridin-2-yl-methyl)-piperazin-1-yl]-phenyl}-butyramide] | 20 | 18 |  |
| CCC(CC)C(=O)Nc1ccc(N2CCN(C(c3ccccc3)c3nc4ccccc4s3)CC2)c(F)c1 (stereo not shown) [Compound 168, N-{4-[4-(Benzothiazol-2-yl-phenyl-methyl)-piperazin-1-yl]-3-fluoro-phenyl}-2-ethyl-butyramide] | 70.8 | 58 |  |
| CCC(CC)C(=O)Nc1ccc(N2CCN(C(c3ccc(Cl)cc3)c3ncco3)CC2)c(F)c1 (stereo not shown) [Compound 157] |  | 160 |  |
| CCC(CC)C(=O)Nc1ccc(N2CCN(C(c3ccccn3)c3ncco3)CC2)c(F)c1 (stereo not shown) [Compound 156, 2-Ethyl-N-{3-fluoro-4-[4-(oxazol-2-yl-pyridin-2-yl-methyl)-piperazin-1-yl]-phenyl}-butyramide] |  | 790 |  |
| CCC(CC)C(=O)Nc1ccc(N2CCN(C(c3ccccc3)c3ncco3)CC2)c(C#N)c1 (stereo not shown) [Compound 86, N-{3-Cyano-4-[4-(oxazol-2-yl-phenyl-methyl)-piperazin-1-yl]-phenyl}-2-ethyl-butyramide] |  | 5 |  |
| Cc1ccccc1C(c1ccccc1)N1CCN(c2ccc(NC(=O)c3c(C)noc3C)cc2C#N)CC1 (stereo not shown) [Compound 301, N-(3-Cyano-4-{4-[(2-methylphenyl)(phenyl)methyl]piperazin-1-yl}phenyl)-3,5-dimethylisoxazole-4-carboxamide] |  |  | 140 |
| N#Cc1cc(NC(=O)C2CCCCC2)ccc1N1CCN(C(c2ccccc2)c2ncco2)CC1 (stereo not shown) [Compound 112, Cyclohexanecarboxylic acid {3-cyano-4-[4-(oxazol-2-yl-phenyl-methyl)-piperazin-1-yl]-phenyl}-amide] |  | 430 |  |
| CCC(CC)C(=O)Nc1ccc(N2CCN(C(c3ccccn3)c3ncco3)CC2)c(C#N)c1 (stereo not shown) [Compound 155, N-{3-Cyano-4-[4-(oxazol-2-yl-pyridin-2-yl-methyl)-piperazin-1-yl]-phenyl}-2-ethyl-butyramide] |  | 150 |  |
| Cc1ccnc(Nc2ccc(N3CCN(C(c4ccccc4)c4ncco4)CC3)c(F)c2)n1 (stereo not shown) [Compound 61, {3-Fluoro-4-[4-(oxazol-2-yl-phenyl-methyl)-piperazin-1-yl]-phenyl}-(4-methyl-pyrimidin-2-yl)-amine] |  | > 10000 |  |
| Cc1noc(C)c1C(=O)Nc1ccc(N2CCN(C(c3ccc(F)cc3)c3ccc(F)cc3)CC2)c(C#N)c1 [Compound 309, 3,5-Dimethyl-isoxazole-4-carboxylic acid (4-{4-[bis-(4-fluoro-phenyl)methyl]-piperazin-1-yl}-3-cyano-phenyl)-amide] |  |  | 740 |
